System: human subject
Experiment: Post-exercise recovery (whole-body oxygen consumption)
Type: in vivo
Procedure: The administration of cinnamaldehyde promotes post-exercise recovery by reducing the time for a subject's oxygen consumption level (VO2) to return to his or her pre-exercise level when cinnamaldehyde is administered after exercise. In these implementations, cinnamaldehyde is administered with a protein and/or a carbohydrate. The protein may be any protein commonly used in nutritional supplement manufacture, which includes but is not limited to whey protein, milk protein, casein protein, beef protein, soy protein, hemp protein, rice protein, canola protein, spirulina, and pea protein. The carbohydrate may by any commonly used form of simple or complex carbohydrates used in the manufacture of dietary supplements, which includes but is not limited glucose, fructose, dextrose, palatinose, maltodextrin, various starches, activated barley, waxy maize, cereals, and oats. In a preferred embodiment, cinnamaldehyde is administered to the human subject within two hours of completion of exercise, for example within 90 minutes, 60 minutes, or 30 minutes of completion of exercise.
The effect of cinnamaldehyde on promoting post-exercise exercise is best when cinnamaldehyde is administered within an hour after exercise and its effect is reduced when administered two hours after exercise. The effect of cinnamaldehyde on promoting post-exercise exercise is enhanced when it is administered with a protein and/or a carbohydrate (for example, a combination of whey powder and glucose).

For `O=CC=Cc1ccccc1` [cinnamaldehyde], the “time for whole-body oxygen consumption to return to pre-exercise levels” value (administered after the human subject completed an exercise session) was “reduced the time”, the “effect on promoting post-exercise recovery” value (“effect” below) (administered two hours after exercise) was “reduced” and the “effect” value (administered with a protein and/or a carbohydrate (e.g. whey powder and glucose)) was “enhanced”. The “effect” value (administered within an hour after exercise) was “best”.

From patent publication US20180125795A1, “[…] COMPOSITIONS AND METHODS” (ThermoLife International, LLC, priority 2017, published 2018)
